Results published in patent publication US11008605B2, “Analysis of single-stranded RNA” (VILNIUS UNIVERSITY, priority 2015, dated 2021).

Experiments:
Hs-piRMT [1] = biological target: T1, Hs-piRMT (Homo sapiens, UniProt Q5T8I9); assay: Metal ion requirement of piRMT methylation of ssRNA miR173.1 (NaIO4/β-elimination, PAG autoradiography); format: biochemical; details: 10 mM metal ion, 1 μM piRMT, 0.2 μM miR173.1, 0.1 mM AdoMet, 30 min, 37° C.
Method: (§1) To test the requirement of different metal cofactors, 20 μl reaction volumes, containing reaction buffer [10 mM Tris-HCl (pH 7.4), 50 mM NaCl, 0.1 mg/ml BSA, 5% (v/v) glycerol and 0.05 u/μl RiboLock (Thermo Scientific)], 0.2 μM ^32P-labelled miR173.1 (5′-[…]-3′, 22 nt) (SEQ ID NO: 3), 0.1 mM AdoMet, 10 mM metal ion and 1 μM of piRMT proteins' were mixed. After 30 min of incubation at 37° C., the degree of modification was determined by NaIO4/β-elimination reaction, during which RNA was treated with 0.2 mM NaIO4 in borax/boric acid buffer [0.06 M, pH 8.6] for 15 min followed by 75 min incubation in borax/boric acid buffer II [0.06 M pH 9.6] at 42° C. Reaction samples were analyzed in 13% denaturing polyacrylamide gel (PAG) and autoradiographed. Fractions of methylated RNA, represented by bands with lower electrophoretic mobility, were evaluated using Multi Gauge version 3.0 software (Fujifilm). The depletion of metal ions by EDTA in the reaction mixture, together with the sample without any metal cofactor added, further confirms that the effective piRMT methylation is due to Co^2+ and Co^3+ ions. B. Column-diagram of RNA methylation efficiency with different metal cofactors. Results are average of duplicate experiments±S.D.

Dm-piRMT = biological target: T2, Dm-piRMT (Drosophila melanogaster, UniProt Q7K175); assay: as above; format: biochemical; parameters: modification efficiency towards RNA substrates with different 3′ terminal nucleotides (U, C, A, G): dose or concentration left out as unconfirmed
T2 sequence (Q7K175 1-391): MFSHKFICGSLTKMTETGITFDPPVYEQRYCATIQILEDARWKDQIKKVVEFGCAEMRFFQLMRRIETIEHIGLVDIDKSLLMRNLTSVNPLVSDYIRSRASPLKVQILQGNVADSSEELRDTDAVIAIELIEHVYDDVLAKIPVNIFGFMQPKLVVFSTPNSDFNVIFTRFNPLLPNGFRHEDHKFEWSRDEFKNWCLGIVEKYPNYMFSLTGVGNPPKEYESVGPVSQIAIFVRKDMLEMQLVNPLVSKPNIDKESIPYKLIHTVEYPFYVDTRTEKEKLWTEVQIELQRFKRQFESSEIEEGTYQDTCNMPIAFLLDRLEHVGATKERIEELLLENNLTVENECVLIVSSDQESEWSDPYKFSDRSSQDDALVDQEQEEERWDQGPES
Method: as §1, with “10 mM metal ion and 1 μM of piRMT proteins' were mixed.” left out
B. Column-diagram of modification efficiency of miR173.1 with different 3′ terminal nucleotides. Results are average of two experiments±S.D.

Hs-piRMT [2] = biological target: T1, Hs-piRMT; details: Mn2+ as metal cofactor; cited from earlier work

T1 sequence (Q5T8I9 whole entry): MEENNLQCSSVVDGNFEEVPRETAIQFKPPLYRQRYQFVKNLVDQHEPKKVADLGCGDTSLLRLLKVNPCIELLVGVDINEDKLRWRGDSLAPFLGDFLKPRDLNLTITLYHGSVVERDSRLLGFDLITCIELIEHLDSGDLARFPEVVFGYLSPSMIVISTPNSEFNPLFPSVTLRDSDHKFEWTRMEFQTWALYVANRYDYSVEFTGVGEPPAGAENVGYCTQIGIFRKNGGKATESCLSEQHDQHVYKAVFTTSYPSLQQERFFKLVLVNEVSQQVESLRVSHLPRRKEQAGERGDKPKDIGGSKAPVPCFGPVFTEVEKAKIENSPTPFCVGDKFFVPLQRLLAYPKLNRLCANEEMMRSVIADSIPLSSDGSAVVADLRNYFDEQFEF

SMILES | degree of methylation of ssRNA substrate with metal ion cofactor (Hs-piRMT [1]) | degree of methylation of ssRNA substrate with metal ion cofactor (Dm-piRMT; 10 mM metal ion, 1 μM piRMT, 0.2 μM miR173.1, 0.1 mM AdoMet, 30 min, 37° C.) | modification efficiency towards RNA substrates with different 3′ terminal nucleotides (U, C, A, G) (Dm-piRMT; Co2+ as metal cofactor, miR173.1 variants) | RNA modification level in presence of metal ion (Hs-piRMT [2])
[Co+2] [Co^2+] | full methylation | full methylation | equally effective modification | 
[Mn+2] [Mn^2+] |  |  |  | seemingly low levels
